Publication PMC6767355 (Journal of Medicinal Chemistry, 2019)
Like-named read-outs stand apart in the source and are kept apart here.

Assays:
[1] = target: T1, CphA (Aeromonas hydrophila, UniProt P26918); settings: cited from earlier work
T1 construct: made in house

[2] = target: T2, L1 (Stenotrophomonas maltophilia, UniProt P52700); settings: cited from earlier work
T2 construct: made in house

[3] = system: six NDM-1-producing clinical isolates of Escherichia coli and Klebsiella pneumoniae; assay: Antimicrobial susceptibility testing, MIC, summary over six clinical isolates; assay type: cell-based; settings: read-out: MIC in the absence of VNRX-5133; all six NDM-1-producing isolates
Method: (§1) Minimal inhibitory concentration (MIC) values were determined by the agar dilution method and interpreted using published guidelines described by EUCAST/CLSI.[57] All reported MIC values are within ±1 log2 dilution of the reference MIC values.

[4] = system: NDM-1-producing Escherichia coli clinical isolates; assay: Antimicrobial susceptibility testing, MIC by agar dilution; assay type: cell-based; settings: antibiotic alone; for MIC: Escherichia coli, strain S117, Ec, read-out: Cef/MEM MIC
Method: as §1

[5] = system: NDM-1-producing Klebsiella pneumoniae clinical isolates; assay: as above; assay type: cell-based; settings: antibiotic alone; for MIC: Klebsiella pneumoniae, strain B64, Kp, read-out: Cef/MEM MIC
Method: as §1

[6] = target: T2, L1; assay: β-lactamase inhibition, fluorogenic FC5 hydrolysis assay; assay type: biochemical
[7] = target: T3, NDM-1 (Klebsiella pneumoniae, UniProt C7C422); assay type: biochemical; settings: pre-incubation 0-180 min; supports reversible inhibition
T3 construct: made in house
T3 sequence (C7C422 29-270, looked up, species assumed): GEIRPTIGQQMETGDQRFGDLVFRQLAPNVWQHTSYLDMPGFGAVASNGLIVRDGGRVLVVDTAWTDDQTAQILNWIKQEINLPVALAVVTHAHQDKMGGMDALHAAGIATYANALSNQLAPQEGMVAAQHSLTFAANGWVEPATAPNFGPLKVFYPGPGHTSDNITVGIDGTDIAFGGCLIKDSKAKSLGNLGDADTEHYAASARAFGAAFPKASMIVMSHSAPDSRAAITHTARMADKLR

[8] = target: T4, OXA-10 (Pseudomonas aeruginosa, UniProt P14489); settings: cited from earlier work
T4 construct: made in house
T4 sequence (P14489 20-266, species assumed): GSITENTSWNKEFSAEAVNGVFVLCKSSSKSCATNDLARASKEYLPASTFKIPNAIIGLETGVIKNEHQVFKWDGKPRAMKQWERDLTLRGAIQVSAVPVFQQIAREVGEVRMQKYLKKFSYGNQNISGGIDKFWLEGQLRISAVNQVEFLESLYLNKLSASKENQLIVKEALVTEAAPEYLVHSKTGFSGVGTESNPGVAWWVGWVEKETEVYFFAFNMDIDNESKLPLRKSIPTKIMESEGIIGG

T2 sequence (P52700 34-290): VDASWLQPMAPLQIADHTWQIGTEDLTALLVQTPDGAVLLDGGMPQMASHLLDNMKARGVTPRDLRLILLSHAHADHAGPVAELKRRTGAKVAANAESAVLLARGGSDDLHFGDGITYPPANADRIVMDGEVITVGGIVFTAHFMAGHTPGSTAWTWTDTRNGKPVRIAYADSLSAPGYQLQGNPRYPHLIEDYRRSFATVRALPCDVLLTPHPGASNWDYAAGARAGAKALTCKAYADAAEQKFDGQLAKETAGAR
T1 sequence (P26918 28-254): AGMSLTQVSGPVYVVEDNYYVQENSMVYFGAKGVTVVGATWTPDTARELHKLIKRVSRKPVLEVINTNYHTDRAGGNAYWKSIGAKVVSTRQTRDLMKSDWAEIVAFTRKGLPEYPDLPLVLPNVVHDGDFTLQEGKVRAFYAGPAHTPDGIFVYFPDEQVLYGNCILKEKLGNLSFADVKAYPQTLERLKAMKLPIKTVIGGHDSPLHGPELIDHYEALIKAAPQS

Row | Compound | MIC [3] [µg/mL] | MIC [4] [µg/mL] | Cef/MEM MIC ([4]; strain 91N, Ec) [μg mL^–1] | Cef/MEM MIC ([4]; strain IR57, Ec) [μg mL^–1] | MIC [5] [µg/mL] | Cef/MEM MIC ([5]; strain B68-1, Kp) [μg mL^–1] | Cef/MEM MIC ([5]; strain IR43, Kp) [μg mL^–1] | other results
1 | NCc1ccc(C(=O)N[C@H]2Cc3cccc(C(=O)O)c3OB2O)cc1 [CB2] | – | – | – | – | – | – | – | IC50 [1]: > 100 µM; IC50 L1 [2]: not inhibited[41]
2 | CO/N=C(\C(=O)N[C@@H]1C(=O)N2C(C(=O)[O-])=C(C[N+]3(C)CCCC3)CS[C@H]12)c1csc(N)n1 [Cef, cefepime] | > 64 | > 64 | >64 | >64 | > 64 | >64 | >64 | –
3 | C[C@@H](O)[C@H]1C(=O)N2C(C(=O)O)=C(S[C@@H]3CN[C@H](C(=O)N(C)C)C3)[C@H](C)[C@H]12 [MEM, meropenem] | > 64 | > 64 | >64 | >64 | > 64 | >64 | >64 | –
4 | NCCN[C@H]1CC[C@H](CC(=O)N[C@H]2Cc3cccc(C(=O)O)c3OB2O)CC1 [VNRX-5133, (R)-3-(2-(trans-4-((2-Aminoethyl)amino)cyclohexyl)acetamido)-2-hydroxy-3,4-dihydro-2H-benzo[e][1,2]oxaborinine-8-carboxylic Acid] | – | – | – | – | – | – | – | inhibition of subclass B3 MBL L1 (in words) [6]: nor did it inhibit; IC50 ([6]; B3 MBL, FC5): > 10 µM; effect of variation in pre-incubation time on IC50, NDM-1 [7]: did not result in different IC50 values
5 | O=C(O)C[C@@H]1CC[C@H](NC(=O)Cc2cccs2)B(O)O1 [vaborbactam] | – | – | – | – | – | – | – | IC50 ([8]; 100 mM aqueous sodium bicarbonate, read-out: IC50 OXA-10 (b)): > 400 µM; inhibition of OXA-10 (in words) [8]: not inhibited; IC50 ([8]; without sodium bicarbonate, read-out: IC50 OXA-10): > 400 µM
